Experiments:
[1] = biological target: STK36 (Homo sapiens, UniProt Q9NRP7); test: KINOMEscan; settings: read-out: Percent Control
Protocol: (§1) The kinase engagement assay (KINOMEscan®) was performed by DiscoverX assessing binding abilities toward a set of kinases.

[2] = biological target: EPHB3 (Homo sapiens, UniProt P54753); test: KINOMEscan; settings: read-out: Percent Control
Protocol: as §1

[3] = biological target: JAK3(JH1domain-catalytic) (Homo sapiens, UniProt P52333); test: KINOMEscan; settings: read-out: Percent Control
Protocol: as §1

[4] = biological target: PLK3 (Homo sapiens, UniProt Q9H4B4); test: KINOMEscan; settings: read-out: Percent Control
Protocol: as §1

[5] = biological target: MST1R (Homo sapiens, UniProt Q04912); test: KINOMEscan; settings: read-out: Percent Control
Protocol: as §1

[6] = biological target: PIKFYVE (Homo sapiens, UniProt Q9Y2I7); test: KINOMEscan; settings: read-out: Percent Control
Protocol: as §1

[7] = biological target: T1, PKNB(M. tuberculosis) (Mycobacterium tuberculosis, UniProt P9WI81); test: KINOMEscan; format: binding; settings: read-out: Percent Control
T1 construct: purchased DiscoverX

[8] = biological target: RSK4(Kin.Dom.2-C-terminal) (Homo sapiens, UniProt Q9UK32); test: KINOMEscan; settings: read-out: Percent Control
Protocol: as §1

[9] = biological target: RSK2(Kin.Dom.1-N-terminal) (Homo sapiens, UniProt P51812); test: KINOMEscan; settings: read-out: Percent Control
Protocol: as §1

[10] = biological target: NEK10 (Homo sapiens, UniProt Q6ZWH5); test: KINOMEscan; settings: read-out: Percent Control
Protocol: as §1

[11] = biological target: RET(V804M) (Homo sapiens, UniProt P07949, V804M); test: KINOMEscan; settings: read-out: Percent Control
Protocol: as §1

[12] = biological target: PIK3CG (Homo sapiens, UniProt P48736); test: KINOMEscan; settings: read-out: Percent Control
Protocol: as §1

[13] = biological target: PCTK1 (Homo sapiens, UniProt Q00536); test: KINOMEscan; settings: read-out: Percent Control
Protocol: as §1

[14] = biological target: EGFR(L747-T751del, Sins) (Homo sapiens, UniProt P00533, DEL747-750/T751S); test: KINOMEscan; settings: read-out: Percent Control
Protocol: as §1

[15] = biological target: T2, Ikaros (IKZF1) (Homo sapiens, UniProt Q13422+Q96SW2); test: Global multiplexed mass spectrometry proteomics in MOLT4 cells; format: cell-based; settings: 1 μM, 5 hours
T2 construct: endogenous in cells; host or cells: MOLT4
Protocol: MOLT4 cells were treated with DMSO in biological triplicate and 1 μM BJG-05-039 for 5 hours and harvested by centrifugation. Cell lysis was performed by the addition of Urea buffer (8 M Urea, 50 mM NaCl, 50 mM 4-(2-hydroxyethyl)-1-piperazineethanesulfonic acid (EPPS) pH 8.5, Protease and Phosphatase inhibitors) followed by manual homogenization by 20 passes through a 21-gauge (1.25 in. long) needle. Lysate was clarified by centrifugation at 4° C. and protein quantified using bradford (Bio-Rad) assay. 100 μg of protein for each sample was reduced, alkylated and precipitated using methanol/chloroform as described (Donovan, et al. (2018) Elife 7: e38430). The resulting precipitated protein was resuspended in 4 M Urea, 50 mM HEPES pH 7.4, buffer for solubilization, followed by dilution to 1 M urea with the addition of 200 mM EPPS, pH 8. Proteins were digested for 12 hours at room temperature with LysC (1:50 ratio), followed by dilution to 0.5 M urea and a second digestion step was performed by addition of trypsin (1:50 ratio) for 6 hours at 37° C. Anhydrous ACN was added to each peptide sample to a final concentration of 30%, followed by addition of Tandem mass tag (TMT) reagents at a labelling ratio of 1:4 peptide:TMT label. TMT labelling occurred over a 1.5 hour incubation at room temperature followed by quenching with the addition of hydroxylamine to a final concentration of 0.3%. Each of the samples were combined using adjusted volumes and dried down in a speed vacuum followed by desalting with C18 SPE (Sep-Pak, Waters). […]
Quantification was performed using a MS3-based TMT method as described (Donovan et al. (2020) Cell 183(6):1714-1731). […]
Proteome Discoverer 2.4 (Thermo Fisher Scientific) was used for .RAW file processing and controlling peptide and protein level false discovery rates, assembling proteins from peptides, and protein quantification from peptides. […]

[16] = biological target: MARK1 (Homo sapiens, UniProt Q9P0L2); test: KINOMEscan; settings: read-out: Percent Control
MARK1, sequence (Q9P0L2 whole entry): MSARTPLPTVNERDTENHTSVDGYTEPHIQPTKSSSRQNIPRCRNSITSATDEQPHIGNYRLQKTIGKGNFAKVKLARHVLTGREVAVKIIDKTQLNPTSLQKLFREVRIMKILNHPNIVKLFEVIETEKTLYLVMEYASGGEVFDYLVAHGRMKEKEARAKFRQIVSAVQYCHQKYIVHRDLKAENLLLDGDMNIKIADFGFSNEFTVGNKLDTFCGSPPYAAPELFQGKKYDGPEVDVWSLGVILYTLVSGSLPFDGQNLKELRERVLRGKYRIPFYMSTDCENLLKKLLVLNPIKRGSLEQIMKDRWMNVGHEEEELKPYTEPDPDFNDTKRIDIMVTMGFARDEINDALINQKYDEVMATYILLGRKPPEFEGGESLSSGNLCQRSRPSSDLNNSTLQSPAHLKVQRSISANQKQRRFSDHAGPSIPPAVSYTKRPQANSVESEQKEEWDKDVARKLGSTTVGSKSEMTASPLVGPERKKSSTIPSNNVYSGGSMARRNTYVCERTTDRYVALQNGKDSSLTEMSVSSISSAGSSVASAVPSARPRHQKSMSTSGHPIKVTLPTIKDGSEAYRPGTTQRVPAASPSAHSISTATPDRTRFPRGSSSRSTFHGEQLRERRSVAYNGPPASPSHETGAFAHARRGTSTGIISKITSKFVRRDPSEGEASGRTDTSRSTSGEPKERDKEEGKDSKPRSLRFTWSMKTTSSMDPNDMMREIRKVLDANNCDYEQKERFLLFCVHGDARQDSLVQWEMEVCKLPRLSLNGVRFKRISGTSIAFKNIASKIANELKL
Protocol: as §1

RSK4(Kin.Dom.2-C-terminal), sequence (Q9UK32 426-683 limits assumed): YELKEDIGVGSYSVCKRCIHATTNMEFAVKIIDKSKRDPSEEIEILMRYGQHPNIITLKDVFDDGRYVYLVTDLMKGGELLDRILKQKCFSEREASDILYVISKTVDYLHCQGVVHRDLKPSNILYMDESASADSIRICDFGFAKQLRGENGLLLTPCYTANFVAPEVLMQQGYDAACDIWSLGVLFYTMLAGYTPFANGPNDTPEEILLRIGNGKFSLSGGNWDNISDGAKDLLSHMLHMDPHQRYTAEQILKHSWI
JAK3(JH1domain-catalytic), sequence (P52333 822-1111 limits assumed): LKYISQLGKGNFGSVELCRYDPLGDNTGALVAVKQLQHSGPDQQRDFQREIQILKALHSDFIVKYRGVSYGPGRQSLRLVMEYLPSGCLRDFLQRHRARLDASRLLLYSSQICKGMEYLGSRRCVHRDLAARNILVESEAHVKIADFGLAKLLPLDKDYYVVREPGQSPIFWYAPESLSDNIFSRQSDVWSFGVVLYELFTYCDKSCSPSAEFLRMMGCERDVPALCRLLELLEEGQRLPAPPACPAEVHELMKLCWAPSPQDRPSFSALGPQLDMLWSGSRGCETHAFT
PIK3CG, sequence (P48736 whole entry): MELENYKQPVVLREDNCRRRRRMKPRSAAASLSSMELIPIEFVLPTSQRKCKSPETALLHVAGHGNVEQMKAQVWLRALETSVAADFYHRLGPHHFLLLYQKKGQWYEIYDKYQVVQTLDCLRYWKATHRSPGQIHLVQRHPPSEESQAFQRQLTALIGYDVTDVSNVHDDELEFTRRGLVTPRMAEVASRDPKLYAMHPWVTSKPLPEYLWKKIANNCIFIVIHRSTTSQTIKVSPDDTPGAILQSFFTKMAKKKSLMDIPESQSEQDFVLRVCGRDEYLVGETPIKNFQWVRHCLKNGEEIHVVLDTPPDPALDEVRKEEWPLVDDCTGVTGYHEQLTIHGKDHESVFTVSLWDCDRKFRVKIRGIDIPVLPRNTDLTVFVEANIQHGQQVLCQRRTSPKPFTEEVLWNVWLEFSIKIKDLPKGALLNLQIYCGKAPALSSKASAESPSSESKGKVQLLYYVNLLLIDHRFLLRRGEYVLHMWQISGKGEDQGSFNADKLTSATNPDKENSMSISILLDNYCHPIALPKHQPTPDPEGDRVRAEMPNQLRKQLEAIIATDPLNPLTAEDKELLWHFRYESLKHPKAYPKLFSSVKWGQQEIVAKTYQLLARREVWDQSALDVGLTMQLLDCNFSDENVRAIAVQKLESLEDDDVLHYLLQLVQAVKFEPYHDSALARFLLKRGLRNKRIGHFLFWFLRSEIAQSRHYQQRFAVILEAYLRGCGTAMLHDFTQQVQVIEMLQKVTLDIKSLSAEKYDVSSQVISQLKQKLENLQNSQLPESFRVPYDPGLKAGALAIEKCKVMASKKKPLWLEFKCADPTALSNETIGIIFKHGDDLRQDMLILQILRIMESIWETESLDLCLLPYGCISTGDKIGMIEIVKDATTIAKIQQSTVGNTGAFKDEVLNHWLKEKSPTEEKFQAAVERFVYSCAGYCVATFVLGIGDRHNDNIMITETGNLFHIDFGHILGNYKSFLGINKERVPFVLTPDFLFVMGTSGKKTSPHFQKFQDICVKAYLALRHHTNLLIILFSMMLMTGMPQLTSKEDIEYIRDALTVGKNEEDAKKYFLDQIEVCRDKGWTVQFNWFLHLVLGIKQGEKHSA
RET(V804M), sequence (P07949 29-1114 V804M): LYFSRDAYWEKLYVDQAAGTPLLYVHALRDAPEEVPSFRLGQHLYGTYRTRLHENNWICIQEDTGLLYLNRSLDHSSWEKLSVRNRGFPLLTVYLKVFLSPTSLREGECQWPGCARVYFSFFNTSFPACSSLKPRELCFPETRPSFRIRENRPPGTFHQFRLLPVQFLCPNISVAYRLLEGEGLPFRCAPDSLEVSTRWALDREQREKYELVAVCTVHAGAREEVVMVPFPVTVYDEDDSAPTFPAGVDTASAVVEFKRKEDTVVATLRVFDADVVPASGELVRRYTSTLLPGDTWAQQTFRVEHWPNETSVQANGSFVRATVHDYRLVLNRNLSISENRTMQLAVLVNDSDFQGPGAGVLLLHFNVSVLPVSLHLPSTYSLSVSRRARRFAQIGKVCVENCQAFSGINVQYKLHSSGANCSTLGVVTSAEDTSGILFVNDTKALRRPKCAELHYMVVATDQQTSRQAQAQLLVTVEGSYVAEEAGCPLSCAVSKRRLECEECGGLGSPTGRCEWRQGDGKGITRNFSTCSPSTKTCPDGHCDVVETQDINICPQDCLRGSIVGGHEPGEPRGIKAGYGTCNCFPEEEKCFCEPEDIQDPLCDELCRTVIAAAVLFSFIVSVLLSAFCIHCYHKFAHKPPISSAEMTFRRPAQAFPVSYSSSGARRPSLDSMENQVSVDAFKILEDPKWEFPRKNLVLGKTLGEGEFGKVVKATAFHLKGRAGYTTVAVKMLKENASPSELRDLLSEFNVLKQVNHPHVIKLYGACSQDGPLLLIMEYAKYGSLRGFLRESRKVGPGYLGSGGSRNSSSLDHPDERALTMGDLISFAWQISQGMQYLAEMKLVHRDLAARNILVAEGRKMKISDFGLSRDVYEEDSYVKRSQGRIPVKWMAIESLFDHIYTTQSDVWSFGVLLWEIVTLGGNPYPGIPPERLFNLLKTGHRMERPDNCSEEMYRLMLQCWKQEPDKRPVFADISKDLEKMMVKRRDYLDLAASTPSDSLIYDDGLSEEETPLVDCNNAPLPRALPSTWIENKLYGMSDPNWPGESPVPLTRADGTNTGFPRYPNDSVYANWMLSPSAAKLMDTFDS
NEK10, sequence (Q6ZWH5 whole entry): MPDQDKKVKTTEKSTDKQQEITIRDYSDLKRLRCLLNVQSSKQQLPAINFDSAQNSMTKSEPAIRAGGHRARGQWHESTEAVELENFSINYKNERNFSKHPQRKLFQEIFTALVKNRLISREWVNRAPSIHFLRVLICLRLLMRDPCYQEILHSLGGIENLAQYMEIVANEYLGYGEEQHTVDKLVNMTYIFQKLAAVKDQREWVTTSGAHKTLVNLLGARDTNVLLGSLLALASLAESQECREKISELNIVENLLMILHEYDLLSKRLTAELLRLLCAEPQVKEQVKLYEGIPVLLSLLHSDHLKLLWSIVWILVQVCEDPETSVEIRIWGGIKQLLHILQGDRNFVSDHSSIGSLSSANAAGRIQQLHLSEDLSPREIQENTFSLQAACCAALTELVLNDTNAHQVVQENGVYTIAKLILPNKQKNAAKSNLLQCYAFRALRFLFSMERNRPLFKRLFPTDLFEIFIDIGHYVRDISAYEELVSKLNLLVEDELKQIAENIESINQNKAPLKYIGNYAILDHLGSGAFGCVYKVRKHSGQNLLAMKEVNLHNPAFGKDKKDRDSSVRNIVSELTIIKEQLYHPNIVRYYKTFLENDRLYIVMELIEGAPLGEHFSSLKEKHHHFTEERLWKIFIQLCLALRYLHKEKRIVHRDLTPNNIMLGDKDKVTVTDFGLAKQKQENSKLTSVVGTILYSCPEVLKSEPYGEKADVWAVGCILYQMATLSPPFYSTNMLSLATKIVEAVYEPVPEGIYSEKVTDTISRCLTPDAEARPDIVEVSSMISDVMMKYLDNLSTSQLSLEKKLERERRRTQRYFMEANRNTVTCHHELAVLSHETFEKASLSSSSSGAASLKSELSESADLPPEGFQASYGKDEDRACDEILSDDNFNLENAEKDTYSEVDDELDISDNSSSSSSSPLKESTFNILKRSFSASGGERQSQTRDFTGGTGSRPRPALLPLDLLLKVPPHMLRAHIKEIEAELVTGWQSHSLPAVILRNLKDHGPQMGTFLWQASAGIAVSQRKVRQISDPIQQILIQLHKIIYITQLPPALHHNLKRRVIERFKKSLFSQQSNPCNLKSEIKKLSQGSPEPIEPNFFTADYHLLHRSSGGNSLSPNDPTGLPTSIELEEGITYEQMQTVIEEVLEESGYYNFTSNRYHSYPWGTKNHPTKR
EGFR(L747-T751del, Sins), sequence (P00533 with tags, fused parts or gaps DEL747-750/T751S limits assumed): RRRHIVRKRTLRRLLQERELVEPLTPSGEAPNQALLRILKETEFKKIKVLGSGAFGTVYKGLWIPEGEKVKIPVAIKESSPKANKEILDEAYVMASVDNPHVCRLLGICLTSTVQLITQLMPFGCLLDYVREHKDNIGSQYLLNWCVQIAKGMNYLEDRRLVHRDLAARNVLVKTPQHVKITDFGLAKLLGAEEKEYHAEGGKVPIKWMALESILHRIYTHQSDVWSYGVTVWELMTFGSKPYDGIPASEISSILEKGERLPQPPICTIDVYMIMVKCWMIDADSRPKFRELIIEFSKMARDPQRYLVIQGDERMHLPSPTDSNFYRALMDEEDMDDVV

Compound: O=C1CCC(N2C(=O)c3cccc(NCCCCCCCCNC(=O)N4CC[C@H](NC5=Nc6cc(F)ccc6N(CC(F)F)c6ccc(Cl)cc65)C4)c3C2=O)C(=O)N1 (stereo partly drawn) [BJG-05-039, (3S)-3-((2-Chloro-5-(2,2-difluoroethyl)-8-fluoro-5H-dibenzo[b,e][1,4]diazepin-11-yl)amino)-N-(8-((2-(2,6-dioxopiperidin-3-yl)-1,3-dioxoisoindolin-4-yl)amino)octyl)pyrrolidine-1-carboxamide]
- remaining binding at 10 µM [1]: 82%
- remaining binding at 10 µM [2]: 89%
- remaining binding at 10 µM [3]: 97%
- remaining binding at 10 µM [4]: 99%
- remaining binding at 10 µM [5]: 97%
- remaining binding at 10 µM [6]: 79%
- remaining binding at 10 µM [7]: 72%
- remaining binding at 10 µM [8]: 45%
- remaining binding at 10 µM [9]: 82%
- remaining binding at 10 µM [10]: 99%
- remaining binding at 10 µM [11]: 59%
- remaining binding at 10 µM [12]: 77%
- remaining binding at 10 µM [13]: 97%
- remaining binding at 10 µM [14]: 80%
- Change in protein abundance [15]: strongly downregulated
- remaining binding at 10 µM [16]: 98%

— patent US20250312462A1, “PAK1 DEGRADERS AND METHODS OF USE THEREOF” (INSTITUTE FOR CANCER RESEARCH D/B/A THE RESEARCH INSTITUTE …, priority 2022, published 2025)
